Substitutions are numbered along the chain they refer to.
How the values were obtained:
Test in all cases: GC-MS product analysis (SPME)
Type in all cases: biochemical
Conditions in all cases: 30 uM GPP, 10 mM MgCl2, pH 7.2, 30 C, 3 h; products (E)-beta-ocimene, alpha-pinene, limonene; results call protein purified, methods use sonicated cells
LsoTPS-3 = biological target: T1, LsoTPS-3 (Lilium hybrid cultivar, UniProt A0A6M2RCV8)
T1 construct: full length, 548 aa (ORF 1647 bp), plastid transit peptide intact; pTYB12 fusion vector; E. coli BL21(DE3); about 62 kDa
T1 sequence (A0A6M2RCV8 1-548): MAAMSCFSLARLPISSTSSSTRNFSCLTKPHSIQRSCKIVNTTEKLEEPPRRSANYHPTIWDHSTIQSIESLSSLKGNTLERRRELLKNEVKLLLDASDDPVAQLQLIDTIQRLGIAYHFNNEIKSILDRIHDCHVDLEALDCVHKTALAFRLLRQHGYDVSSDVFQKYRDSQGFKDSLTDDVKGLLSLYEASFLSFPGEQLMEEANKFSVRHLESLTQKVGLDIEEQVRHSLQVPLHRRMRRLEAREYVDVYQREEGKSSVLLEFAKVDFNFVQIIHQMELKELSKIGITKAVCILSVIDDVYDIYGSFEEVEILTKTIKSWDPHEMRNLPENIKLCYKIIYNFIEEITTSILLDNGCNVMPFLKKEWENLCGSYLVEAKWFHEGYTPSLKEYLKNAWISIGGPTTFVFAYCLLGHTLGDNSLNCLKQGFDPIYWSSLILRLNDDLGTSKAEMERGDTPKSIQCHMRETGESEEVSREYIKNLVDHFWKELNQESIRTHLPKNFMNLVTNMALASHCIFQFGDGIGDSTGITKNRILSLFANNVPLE

LsoTPS-2 = biological target: T2, LsoTPS-2 (Lilium hybrid cultivar, UniProt A0A2H4R3S6)
T2 construct: gene TPS; full length, 590 aa (ORF 1773 bp), plastid transit peptide intact; pTYB12 fusion vector; E. coli BL21(DE3); about 68 kDa
T2 sequence (A0A2H4R3S6 1-590): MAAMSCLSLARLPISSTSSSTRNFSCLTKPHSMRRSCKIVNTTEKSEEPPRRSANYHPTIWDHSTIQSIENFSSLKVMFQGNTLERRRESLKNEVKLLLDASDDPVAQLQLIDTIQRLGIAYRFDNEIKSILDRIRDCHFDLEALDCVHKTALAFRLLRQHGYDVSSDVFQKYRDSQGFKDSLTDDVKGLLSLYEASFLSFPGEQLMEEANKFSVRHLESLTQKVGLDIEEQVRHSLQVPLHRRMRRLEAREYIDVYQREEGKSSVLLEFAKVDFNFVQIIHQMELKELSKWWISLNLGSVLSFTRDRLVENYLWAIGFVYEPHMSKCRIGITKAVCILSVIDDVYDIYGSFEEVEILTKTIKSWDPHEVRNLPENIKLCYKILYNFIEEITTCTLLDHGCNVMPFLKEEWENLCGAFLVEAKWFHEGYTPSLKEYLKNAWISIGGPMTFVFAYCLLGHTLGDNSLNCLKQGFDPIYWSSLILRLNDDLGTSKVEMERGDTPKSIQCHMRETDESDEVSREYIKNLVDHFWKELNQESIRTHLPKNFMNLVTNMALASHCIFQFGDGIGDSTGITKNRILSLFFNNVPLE

LsoTPS-1 / LrlTPS-1 = biological target: T3, LsoTPS-1 / LrlTPS-1 (Lilium hybrid cultivar, UniProt A0A6M2RDI7)
T3 construct: full length, 586 aa (ORF 1761 bp), plastid transit peptide intact; pTYB12 fusion vector; E. coli BL21(DE3); about 67 kDa
T3 sequence (A0A6M2RDI7 1-586): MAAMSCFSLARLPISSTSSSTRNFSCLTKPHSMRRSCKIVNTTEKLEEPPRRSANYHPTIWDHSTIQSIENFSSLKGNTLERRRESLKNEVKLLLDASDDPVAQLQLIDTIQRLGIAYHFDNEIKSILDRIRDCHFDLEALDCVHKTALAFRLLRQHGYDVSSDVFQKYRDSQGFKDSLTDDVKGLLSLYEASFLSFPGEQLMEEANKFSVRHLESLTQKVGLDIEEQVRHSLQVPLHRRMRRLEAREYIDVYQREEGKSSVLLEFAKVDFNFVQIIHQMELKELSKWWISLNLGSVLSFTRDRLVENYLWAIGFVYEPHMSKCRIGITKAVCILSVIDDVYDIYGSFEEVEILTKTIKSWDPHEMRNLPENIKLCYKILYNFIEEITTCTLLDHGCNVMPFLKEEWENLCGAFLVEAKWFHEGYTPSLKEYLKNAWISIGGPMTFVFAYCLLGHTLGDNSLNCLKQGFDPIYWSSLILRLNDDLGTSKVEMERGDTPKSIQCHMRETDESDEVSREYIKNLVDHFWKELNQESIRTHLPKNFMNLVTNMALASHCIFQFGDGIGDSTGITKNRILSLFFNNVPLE

LrlTPS-3 = biological target: T4, LrlTPS-3 (Lilium hybrid cultivar, UniProt A0A6M2RDN4)
T4 construct: full length, 548 aa (ORF 1647 bp), plastid transit peptide intact; pTYB12 fusion vector; E. coli BL21(DE3); about 62 kDa
T4 sequence (A0A6M2RDN4 1-548): T1 sequence (A0A6M2RCV8 1-548) with L80P, H231R

With `CC(C)=CCC/C(C)=C/COP(=O)(O)OP(=O)(O)O` [GPP] the “GC-MS product analysis (SPME)” value (LsoTPS-3) was “all five proteins were able to convert GPP into (E)-β-ocimene, α-pinene, and limonene”, the “GC-MS product analysis (SPME)” value (LsoTPS-2) was “all five proteins were able to convert GPP into (E)-β-ocimene, α-pinene, and limonene” and the “GC-MS product analysis (SPME)” value (LsoTPS-1 / LrlTPS-1) was “all five proteins were able to convert GPP into (E)-β-ocimene, α-pinene, and limonene”. For the same molecule, the “GC-MS product analysis (SPME)” value (LrlTPS-3) was “all five proteins were able to convert GPP into (E)-β-ocimene, α-pinene, and limonene”.
